Patent publication US10035766B2, “Compositions for preventing and/or treating lysosomal storage disorders” (Amicus Therapeutics, Inc., priority 2009, dated 2018)
Structures can show the parent of a compound that is named as a salt. Where two headings read alike, the source gives them in different places.

How the values were obtained:
GCase = molecular target: T1, GCase (Mus musculus, UniProt P17439); test: GCase enhancement in brain and spleen after oral dosing over 2 weeks; type: in vivo, mice; parameters: from tissue; host or cells: brain and spleen of wild-type C57BL/6 mice; details: for GCase enhancement in brain and spleen: mice, p.o.; for GCase increase (fold): 9 doses, 24-hour washout
T1 sequence (P17439 20-515): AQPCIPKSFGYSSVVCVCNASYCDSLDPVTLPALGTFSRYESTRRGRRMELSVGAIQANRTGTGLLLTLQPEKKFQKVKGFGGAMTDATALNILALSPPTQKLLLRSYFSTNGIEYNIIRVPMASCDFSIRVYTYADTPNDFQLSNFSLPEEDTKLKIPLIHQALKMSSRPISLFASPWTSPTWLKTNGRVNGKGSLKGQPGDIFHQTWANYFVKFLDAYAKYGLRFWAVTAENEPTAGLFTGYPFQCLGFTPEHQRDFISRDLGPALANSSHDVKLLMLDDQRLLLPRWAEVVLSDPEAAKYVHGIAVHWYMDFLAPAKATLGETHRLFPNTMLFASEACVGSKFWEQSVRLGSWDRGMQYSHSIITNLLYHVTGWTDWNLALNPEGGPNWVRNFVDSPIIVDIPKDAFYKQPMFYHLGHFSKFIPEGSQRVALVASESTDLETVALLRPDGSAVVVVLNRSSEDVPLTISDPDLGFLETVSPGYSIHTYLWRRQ
Experimental: (§1) The ability of orally administered test compounds ((3R,4R,5S)-5-(difluoromethyl)piperidine-3,4-diol, (3R,4R,5S)-5-(1-fluoroethyl)piperidine-3,4-diol, (3R,4R,5S)-5-((R)-1-fluoropropyl)piperidine-3,4-diol hydrochloride, or (3R,4R,5S)-5-benzylpiperidine-3,4-diol) to elevate GCase levels was assessed in mice. For this purpose, 8-week old wild-type male mice (C57BL/6) were administered a single p.o. (gavage) dose of a compound of the present invention (i.e., (3R,4R,5S)-5-(difluoromethyl)piperidine-3,4-diol, (3R,4R,5S)-5-(1-fluoroethyl)piperidine-3,4-diol, (3R,4R,5S)-5-((R)-1-fluoropropyl)piperidine-3,4-diol hydrochloride, or (3R,4R,5S)-5-benzylpiperidine-3,4-diol). The dosing solutions were prepared in water. Compounds were administered over 2 weeks as follows: week 1, Mon-Fri (On), Sat-Sun (Off); week 2, Mon-Thu (On); necropsy on Friday. Thus, a total of 9 doses (dosing solutions prepared fresh every day) were given to each mouse, with a 24-hour washout between the last dose and necropsy.
(§2) Plasma was collected by spinning blood at 2700 g for 10 minutes at 4° C. Liver, spleen, lung, and brain tissues were removed, washed in cold PBS, blotted dry, flash frozen on dry ice, and stored at −80° C. until analysis. GCase levels were measured by homogenizing approximately 50 mg tissue in 500 μL McIlvane (MI) buffer (100 mM sodium citrate, 200 mM sodium phosphate dibasic, 0.25% sodium taurocholate, and 0.1% Triton X-100, pH 5.2) at pH 5.2 for 3-5 seconds on ice with a micro homogenizer. Homogenates were then incubated at room temperature without and with 2.5 mM conduritol-B-epoxide (CBE) for 30 min. Finally, 3.7 mM 4-methylumbeliferryl-β-glucoside (4-MUG) substrate was added and incubated at 37° C. for 60 min. […] Fluorescence was measured on a plate reader for 1 sec/well using 355 nm excitation and 460 nm emission. Total protein was determined in lysates using the MicroBCA kit according to the manufacturer's instructions. A 4-methylumbelliferone (4-MU) standard curve ranging from 1.0 nM to 50 μM was run in parallel for conversion of raw fluorescence data to absolute GCase activity (in the presence and absence of CBE) and expressed as nanomoles of 4-MU released per milligram of protein per hour (nmol/mg protein/hr). GCase levels and protein levels were calculated using Microsoft Excel (Redmond, Wash.) and GraphPad Prism version 4.02.

[1] = as above; type: in vivo, mice; details: male, C57BL/6, mouse, brain homogenate as diluted in the GCase assay, po, brain, read-out: Compound concentration in GCase assay
Experimental: as §1, §2

[2] = Blood brain barrier penetration: plasma and brain levels after single oral dose; type: in vivo; details: mice, single 30 mg/kg (free base equivalent) p.o.
Experimental: For this purpose, 8-week old wild-type male mice (C57BL/6) were administered a single 30 mg/kg (free base equivalent) p.o. dose of reference or test compound by gavage (n=3 mice per time point). Dosing solutions were prepared in water. After dosing, mice were euthanized with CO2 at the following time points: 0-, 0.5-, 1-, and 4-hour post-dose. […] Similarly, brains were collected from each mouse. Plasma was derived by spinning whole blood at 2,700×g for 10 minutes at 4° C. followed by storage on dry ice. Whole brains were washed in cold PBS to remove contaminating blood, blotted dry, flash frozen on dry ice, and ultimately stored at −80° C. until analysis. To prepare brain samples for analysis, 50-100 mg of tissue was homogenized in […] of water/mg tissue. Samples were then clarified by centrifugation. Next, 25 μl of the brain homogenate supernatant or 25 μl of plasma were combined with 25 μl of acetonitrile:water (95/5). […] Samples were again clarified by centrifugation and 75 μl of the supernatant was combined with 75 μl of acetonitrile. Samples were then analyzed for compound levels by LC-MS/MS at PPD Inc. (3230 Deming Way, Middleton, Wis. 53562). In brief, a Thermo Betasil, Silica-100, 50×3 mm, 5μ column equilibrated with a mixture of mobile phase consisting of 5 mM ammonium formate and 0.05% formic acid in (A) 95:5 acetonitrile:water or (B) 70:20:10 methanol:water:acetonitrile was employed. Between 20 and 30 μl sample was injected for analysis. For calculating drug concentrations, raw data for plasma (ng/mL) and brain (ng/g) was converted to nM using the molecular weight of respective compounds and assuming 1 g of tissue is equivalent to 1 mL volume. Concentration as a function of time was plotted in GraphPad Prism version 4.02.

[3] = brain, 10 mg/kg FBE p.o., (1) BLQ <[…], (2) BLQ <2.2 nmol/kg
[4] = spleen, 10 mg/kg FBE p.o., (1) BLQ <6.8 nmol/kg, (2) BLQ <7.9 nmol/kg
[5] = spleen, 10 mg/kg FBE p.o., in µM
[6] = spleen, 100 mg/kg FBE p.o., in µM

SMILES | Compound concentration in tissue 2.2 nmol/kg (GCase; [3]) | Compound concentration in tissue 2.2 nmol/kg (GCase; brain, 100 mg/kg FBE p.o.) [nmol/kg] | GCase enhancement in brain and spleen (GCase) | Compound concentration in tissue (GCase; [4]) [nmol/kg] | Compound concentration in GCase assay (GCase; [5]) | Compound concentration in tissue (GCase; spleen, 100 mg/kg FBE p.o.) [nmol/kg] | Compound concentration in GCase assay (GCase; [6]) | concentration at 24 h ([1]; 10 mg/kg, 10 mg/kg FBE p.o.) [nM] | concentration at 24 h ([1]; 100 mg/kg, 100 mg/kg FBE p.o.) [nM] | blood brain barrier crossing compared to IFG-tartrate [2] | levels detected in brain compared to IFG-tartrate [2] | GCase increase (fold) (GCase; brain, 10 mg/kg FBE p.o.) | Compound concentration in GCase assay (GCase; spleen, 10 mg/kg FBE p.o.) | Compound concentration in GCase assay (μM) (GCase; brain, 10 mg/kg FBE p.o.) | GCase increase (fold) (GCase; brain, 100 mg/kg FBE p.o.) | GCase increase (fold) (GCase; spleen, 10 mg/kg FBE p.o.) | GCase increase (fold) (GCase; spleen, 100 mg/kg FBE p.o.)
O[C@H]1[C@H](O)CNC[C@@H]1C(F)F [Compound 6, (3R,4R,5S)-5-(Difluoromethyl)piperdine 3,4-diol Hydrochloride] | 55 nmol/kg | 301 | significant GCase enhancement in brain and spleen | 100 | 0.0003 | 435 | 0.0015 | 0.2 | 1 | crossed the blood brain barrier more readily as compared to IFG-tartrate | higher levels | – | – | – | – | – | –
CC(F)[C@H]1CNC[C@@H](O)[C@@H]1O (single isomer, unassigned) | – | – | significant GCase enhancement in brain and spleen | – | – | – | – | 0.2 | – | crossed the blood brain barrier more readily as compared to IFG-tartrate | higher levels | 1.5 | BLQ | – | – | – | –
CC[C@@H](F)[C@H]1CNC[C@@H](O)[C@@H]1O.Cl [(3R,4R,5S)-5-((R)-1-fluoropropyl)-piperidine-3,4-diol hydrochloride] | BLQ(2) | 38 | – | 21 | 0.0001 | 60 | 0.0002 | – | 0.1 | crossed the blood brain barrier more readily as compared to IFG-tartrate | higher levels | 0.9 | – | BLQ | 1.1 | 0.7 | 0.7
O[C@@H]1[C@@H](Cc2ccccc2)CNC[C@H]1O [(3R,4R,5S)-5-benzyl-piperidine-3,4-diol] | – | – | significant GCase enhancement in brain and spleen | – | – | – | – | – | – | crossed the blood brain barrier more readily as compared to IFG-tartrate | higher levels | 1.2 | – | – | 1.4 | 1.0 | 1.2
